From publication PMC10483525, “Synthesis, Structural Investigations, DNA/BSA Interactions, Molecular Docking Studies, and Anticancer Activity of a New 1,4-Disubstituted 1,2,3-Triazole Derivative” (ACS Omega, 2023)

Assays:
[1] = biological target: T1, BSA (bovine serum albumin) (Bos taurus, UniProt P02769); test: BSA fluorescence quenching; type: binding; settings: for Kq (bimolecular quenching constant): Ksv = kqτ0, τ0 10 ns; for ΔG: van't Hoff equation from Kbin, BSA binding
T1 construct: purchased Merck/Sigma
Protocol: BSA fluorescence spectral studies of the compound and related calculations were the same as those performed for the [CT-DNA + EB] quenching method described in Section 4.5. Detailed experimental procedures and the calculations of the binding data are given in the SI. […]
The quenching efficiency of the compound was analysed using the Stern-Volmer equation.
Io/I = 1 + K sv[Q] = 1 + k qτ0[Q] […]
where I o and I are the emission intensities of CT-DNA+EB complex in the absence and each […]
addition of compound, respectively and [Q] is the concentration of quencher. The Stern-Volmer […]
(quenching) constant, K sv was determined from the slope of the linear plot of I o/I versus [Q].
To have an insight into the kinetics of the competitive binding process, the bimolecular […]
quenching rate constant, k q values were also computed using the Stern-Volmer equation. […]
where n is the number of binding sites per nucleotide. 8
Fluorescence Spectral Studies
Quenching of fluorescence emission of BSA by compound was performed in order to determine […]
its binding constant. Stock concentration of BSA (5 μM) was prepared in 10 mM Tris- HCl […]
buffer at pH = 7.4. The emission spectra of 5 μM BSA solutions in the absence and presence of […]
compound of concentration ranging from 0 to 8 μM were acquired at room temperature. The […]
emission changes were recorded in the λ em range of 300 to 450 nm, with the excitation wavelength set at 280 nm. Each spectrum was recorded after an incubation time of 10 minutes.
The quenching efficiency of the compound was calculated using the Stern-Volmer equation as discussed above. The Stern-Volmer (quenching) constant, K sv was determined from the slope of the linear plot of I o/I versus [Q]. To have an insight into the kinetics of the competitive binding process, the bimolecular quenching rate constant, k q values were also computed using the same Stern Volmer equation, where τ 0 is the average fluorescence lifetime of the BSA alone is 10 nanoseconds. 9 Scatchard plots also gave the binding constant K bin as determined from the fluorescence titration using Scatchard equation. 10 The standard Gibbs free (ΔG) of compound

[2] = tested on: HEK-293; test: MTT assay; type: cell-based, human; settings: Homo sapiens, HEK293
Protocol: (§1) Human cancer cell lines (MDA-MB-231, LNCaP, Caco-2) and a human healthy cell line (HEK-293) were obtained from the European Collection of Cell Cultures. The cells were incubated in a humidified incubator (37 °C, 5% CO2) and cultured under standard conditions in Dulbecco’s modified Eagle medium (DMEM), 10% heat-inactivated fetal bovine serum, 100 U mL^–1 penicillin, 100 U mL^–1 streptomycin, and 4 mM L-glutamine. […] A cell culture medium was used to make further dilutions, while keeping the equivalent of DMF below 0.5% of the total volume.[94] […]
(§2) 7. Cell Viability Inhibition Assay
(§3) MDA-MB-231, LNCaP, Caco-2 and HEK-293 cells (5x10^3 per well) seeded in 96-well plates to assess cell viability by the 3-[4,5-dimethylthiazol-2-yl]-2,5-diphenyltetrazolium bromide (MTT) assay for 24 h at 37°C. Then cells were treated with compound 3 at different concentrations (3-100 µM) at 100μl/well. In parallel, the traditional anticancer agent cisplatin and etoposid was used as positive controls under identical conditions. After 24, 48 and 72 h incubation, 5 mg/ml MTT solution (20 μl/well) was added and cultured for another 4 h. Then, the supernatant was discarded and dimethyl sulfoxide was added (100 μl/well). The absorbance (A) was measured spectrophotometrically at 540 nm by a Microplate Reader (SpectraMax i3x).
(§4) A graph was plotted between the concentrations of the extract versus the percent viability. The […]
(§5) calculated from graph. All assays were performed in three replicates per concentration level. 11 […]

[3] = tested on: LNCaP; test: MTT assay; type: cell-based, human; settings: for IC50: Homo sapiens, LNCaP
Protocol: as §1, §2, §3, §4, §5

[4] = tested on: MDA-MB-231; test: MTT assay; type: cell-based, human; settings: for IC50: Homo sapiens
Protocol: as §1, §2, §3, §4, §5

[5] = tested on: Caco-2; test: MTT assay; type: cell-based, human; settings: for IC50: Homo sapiens
Protocol: as §1, §2
MDA-MB-231, LNCaP, Caco-2 and HEK-293 cells (5x10^3 per well) seeded in 96-well plates to assess cell viability by the 3-[4,5-dimethylthiazol-2-yl]-2,5-diphenyltetrazolium bromide (MTT) assay for 24 h at 37°C. Then cells were treated with compound 3 at different concentrations (3-100 µM) at 100μl/well. […]
and etoposid was used as positive controls under identical conditions. After 24, 48 and 72 h incubation, 5 mg/ml MTT solution (20 μl/well) was added and cultured for another 4 h. Then, the supernatant was discarded and dimethyl sulfoxide was added (100 μl/well). The absorbance (A) was measured spectrophotometrically at 540 nm by a Microplate Reader (SpectraMax i3x).
as §4, §5

[6] = tested on: Caco-2 cells; test: ROS determination (flow cytometry); type: cell-based, human; settings: Caco-2, 48 h, 0, 7.5, 1.5, and 30 μM
Protocol: Biosciences, San Jose, CA, USA)
The intracellular ROS generation was evaluated using The Total Reactive Oxygen Species
(ROS) Assay Kit. Caco2 cells (5x10^5 per well) were seeded in 6-well plates and were incubated for 24 h in a 37°C incubator with 5% CO2. Then cells were treated with compound 3 ([…]) for 48 h to induce production of ROS. Cells were harvested and incubated with 10 […] H2DCFDA for 30 min at 37°C incubator with 5% CO2, followed by resuspending three times with pre-warmed HBSS (2000 rpm×3 min). Total ROS levels in live cells were measured using a flow cytometry (BD Biosciences, San Jose, CA, USA).

[7] = 48 h, SI = IC50 on normal cells/IC50 on cancer cells

T1 sequence (P02769 25-607): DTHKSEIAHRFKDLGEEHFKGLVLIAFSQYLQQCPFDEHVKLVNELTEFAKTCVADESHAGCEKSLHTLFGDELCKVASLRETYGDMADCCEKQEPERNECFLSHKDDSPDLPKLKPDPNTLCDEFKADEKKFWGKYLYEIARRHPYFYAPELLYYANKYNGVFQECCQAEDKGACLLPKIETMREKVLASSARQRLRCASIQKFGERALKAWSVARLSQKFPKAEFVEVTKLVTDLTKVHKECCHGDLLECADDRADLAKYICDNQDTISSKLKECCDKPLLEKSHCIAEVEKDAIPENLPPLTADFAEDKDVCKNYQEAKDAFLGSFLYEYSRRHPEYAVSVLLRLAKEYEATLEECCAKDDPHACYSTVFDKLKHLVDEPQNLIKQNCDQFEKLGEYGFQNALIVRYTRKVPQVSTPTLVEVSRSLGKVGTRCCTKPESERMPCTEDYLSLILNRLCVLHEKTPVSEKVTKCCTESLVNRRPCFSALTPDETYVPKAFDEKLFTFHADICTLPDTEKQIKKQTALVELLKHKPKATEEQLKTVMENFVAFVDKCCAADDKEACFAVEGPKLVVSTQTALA

O=Cc1ccc(OCc2cn(-c3ccc(Cl)c(Cl)c3)nn2)cc1O [Compound 3, 4-((1-(3,4-Dichlorophenyl)-1H-1,2,3-triazol-4-yl)methoxy)-2-hydroxybenzaldehyde]
quenching of BSA fluorescence intensity at ∼345 nm ([1]; BSA 5 μM, compound 0 to 8 μM): 69.12%
red shift of BSA emission ([1]; BSA 5 μM, compound 0 to 8 μM): 5 nm
Ksv (Stern–Volmer quenching constant) ([1]; BSA 5 μM, compound 0–8 μM, λex 280 nm): 1.99 × 10^5 M^–1
Kq (bimolecular quenching constant) ([1]; BSA): 1.99 × 10^13 M^–1·s^–1
Kq (bimolecular quenching constant) ([1]; BSA, listed as compound 3): ~10^13 M^–1·s^–1
n (number of binding sites) ([1]; Scatchard equation, BSA): 0.80
Kd ([1]; Scatchard equation, BSA 5 μM, read-out: Kbin (binding constant) (converted)): 45.9 µM
ΔG [1]: –24.75 kJ·mol^–1
ΔG ([1]; listed as compound 3): −24.75 kJ·mol^–1
IC50 ([2]; HEK-293, 24 h): 43.95 ± 0.2 µM
IC50 ([2]; HEK-293, 48 h): 24.44 ± 0.13 µM
IC50 ([2]; HEK-293, 72 h): 17.09 ± 0.08 µM
SI HEK-293/LNCap [3, 7]: 1.43
IC50 ([3]; 24 h): 44.82 ± 0.09 µM
IC50 ([3]; 48 h): 17.1 ± 0.26 µM
IC50 ([3]; 72 h): 10.05 ± 0.03 µM
SI, times higher than cisplatin ([3]; LNCap cells): 8 times
SI HEK-293/MDA-MB-231 [4, 7]: 2.3
IC50 ([4]; MDA-MB-231, 24 h): 65.03 ± 0.31 µM
IC50 ([4]; MDA-MB-231, 48 h): 10.64 ± 0.03 µM
IC50 ([4]; MDA-MB-231, 72 h): 8.39 ± 0.04 µM
SI HEK-293/Caco-2 [5, 7]: 1.46
SI, times higher than cisplatin ([5]; Caco-2 cells): 10 times
IC50 ([5]; Caco-2, 24 h): 31.7 ± 0.34 µM
IC50 ([5]; Caco-2, 48 h): 16.6 ± 0.27 µM
IC50 ([5]; Caco-2, 72 h): 11.77 ± 0.01 µM
ROS production (fluorescence intensity) [6]: increased the fluorescence intensity
melting point: 144 to 145 °C
